In patent US12509437B2, “Substituted thiophene carboxamides and derivatives thereof as microbicides” (Bayer Aktiengesellschaft, priority 2019, dated 2025):
Read-outs that look alike come from different tables or passages of the source.

What was measured:
[1] = tested on: Alternaria alternata; assay: Alternaria alternata in vitro cell test; format: cell-based; details: 120 h, 5 days incubation, read-out: efficacy (inhibition of fungal growth; no direct activity); for inhibition at 5 ppm: 5 ppm of active ingredient; for inhibition at 20 ppm: 20 ppm of active ingredient
Description: (§1) • Solvent: DMSO • Culture medium: 14.6 g anhydrous D-glucose (VWR), 7.1 g Mycological Peptone (Oxoid), 1.4 g granulated Yeast Extract (Merck), QSP 1 liter • Inoculum: spores suspension Fungicides were solubilized in DMSO and the solution used to prepare the required range of concentrations. The final concentration of DMSO used in the assay was ≤[…]1%. A spore suspension of A. alternata was prepared and diluted to the desired spore density. Fungicides were evaluated for their ability to inhibit spore germination and mycelium growth in liquid culture assay. The compounds were added in the desired concentration to the culture medium with spores. After 5 days incubation, fungi-toxicity of compounds was determined by spectrometric measurement of mycelium growth. Inhibition of fungal growth was determined by comparing the absorbance values in wells containing the fungicides with the absorbance in control wells without fungicides.

[2] = tested on: Peronospora parasitica; assay: In vivo preventive test on Peronospora parasitica (Crucifer downy mildew) on cabbage; details: Hyaloperonospora parasitica, 120 h, sprayed 72 hours before inoculation, evaluated 5 days after inoculation, read-out: efficacy; for pest or weed control at 125 ppm: 125 ppm of active ingredient; for pest or weed control at 500 ppm: 500 ppm of active ingredient; for pest or weed control at 31 ppm: 31 ppm of active ingredient
Description: (§2) The tested active ingredients were prepared by homogenization in a mixture of acetone/Dimethyl sulfoxide/Tween®, and then diluted with water to obtain the desired active material concentration.
(§3) The young plants of cabbage were treated by spraying the active ingredient prepared as described above. Control plants were treated only with an aqueous solution of acetone/Dimethyl sulfoxide/Tween®.
After 72 hours, the plants were contaminated by spraying the leaves with an aqueous suspension of Peronospora parasitica spores. The contaminated cabbage plants were incubated for 5 days at 20° C. and at 100% relative humidity.
The test was evaluated 5 days after the inoculation. 0% means an efficacy which corresponds to that of the control plants while an efficacy of 100% means that no disease was observed.

[3] = tested on: Uromyces appendiculatus; assay: In vivo preventive test on Uromyces appendiculatus (bean rust); details: 240 h, sprayed 72 hours before inoculation, evaluated 10 days after inoculation, read-out: efficacy; for pest or weed control at 125 ppm: 125 ppm of active ingredient; for pest or weed control at 500 ppm: 500 ppm of active ingredient; for pest or weed control at 31 ppm: 31 ppm of active ingredient
Description: as §2
The young plants of bean were treated by spraying the active ingredient prepared as described above. Control plants were treated only with an aqueous solution of acetone/Dimethyl sulfoxide/Tween®.
After 72 hours, the plants were contaminated by spraying the leaves with an aqueous suspension of Uromyces appendiculatus spores. The contaminated bean plants were incubated for 24 hours at 20° C. and at 100% relative humidity and then for 9 days at 20° C. and at 70-80% relative humidity.
The test was evaluated 10 days after the inoculation. 0% means an efficacy which corresponds to that of the control plants while an efficacy of 100% means that no disease was observed.

[4] = tested on: Pseudomonas syringae pv. tomato; assay: Pseudomonas syringae pv. tomato in vitro cell test; format: cell-based; details: 20 ppm of active ingredient, 24 h of incubation, read-out: efficacy (inhibition of bacteria growth; no direct activity)
Description: (§4) • Solvent: DMSO • Culture medium: LB broth medium (Luria Broth Miller) Sigma • Inoculum: bacteria suspension Compounds were solubilized in DMSO and the solution used to prepare the required range of concentrations. The final concentration of DMSO used in the assay was ≤1%. Inoculum was prepared from a pre-culture of bacteria grown in liquid medium and diluted to the desired optical density (OD). Compounds were evaluated for their ability to inhibit bacteria growth in liquid culture assay. The compounds were added in the desired concentrations to culture medium containing the bacteria suspension. After 24 h of incubation, the efficacy of compounds was determined by spectrometric measurement of bacteria growth. Inhibition was determined by comparing the absorbance values in wells containing the compounds with the absorbance in control wells without active ingredients.

[5] = tested on: Colletotrichum lindemuthianum; assay: Colletotrichum lindemuthianum in vitro cell test; format: cell-based; details: 144 h, 6 days incubation, read-out: efficacy (inhibition of fungal growth; no direct activity); for inhibition at 5 ppm: 5 ppm of active ingredient; for inhibition at 20 ppm: 20 ppm of active ingredient
Description: as §1, with “of C. lindemuthianum” for “of A. alternata”, “inhibit spores” for “inhibit spore”, “After 6” for “After 5”

[6] = LogP by HPLC on reversed phase columns (EEC directive 79/831 Annex V.A8); format: physicochemical; details: reversed phase HPLC columns
Outline: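 Reversed-phase HPLC, calibrated with straight-chain alkan-2-ones (C3–C16) of known LogP; values by linear interpolation of retention times between successive alkanones. Multiple values from one method are joined by "+"; lambda-max taken from 200–400 nm UV spectra at chromatographic peaks.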

[7] = tested on: Xanthomonas campestris pv. campestris; assay: Xanthomonas campestris pv. campestris in vitro cell test; format: cell-based; details: 24 h of incubation, read-out: efficacy (inhibition of bacteria growth; no direct activity); for inhibition at 5 ppm: 5 ppm of active ingredient; for inhibition at 20 ppm: 20 ppm of active ingredient
Description: as §4

[8] = tested on: salicylate responsive promoter sequence of the PR1 (pathogenesis-related protein I) gene (AT2G14610); assay: Induction of defense gene expression in Arabidopsis thaliana (PR1 promoter-GFP reporter plants); format: in vivo; details: 72 h, 3rd day after spraying, mock treated leaves set as 1.00, read-out: relative fluorescence value
Description: Arabidopsis thaliana reporter plants containing the coding sequence of a green fluorescent protein (GFP) linked to the salicylate responsive promoter sequence of the PR1 (pathogenesis-related protein I) gene (AT2G14610) were grown for five days and then sprayed with compounds. On the 3rd day after spraying, plant fluorescence was assessed with a MacroFluo instrument from Leica Microsystems (Wetzlar, Germany). Fluorescences were quantified with the Meta-Morph Microscopy Automation & Image Analysis Software (Molecular Devices, Sunnyvale, Calif., United States). Background fluorescence in mock treated leaves was set as 1.00.

[9] = tested on: Xanthomonas campestris pv. campestris; assay: In vivo preventive test on Xanthomonas campestris pv. campestris (black rot on cabbage); details: Xanthomonas campestris, sprayed 72 hours before inoculation, evaluated 8 or 10 days after inoculation, read-out: efficacy; for pest or weed control at 125 ppm: 125 ppm of active ingredient; for pest or weed control at 31 ppm: 31 ppm of active ingredient
Description: as §2, §3
After 72 hours, the plants were contaminated by spraying the leaves with an aqueous bacteria suspension of Xanthomonas campestris pv. campestris. The contaminated cabbage plants were incubated for 8 or 10 days at 27° C. at 95% relative humidity.
The test was evaluated 8 or 10 days after the inoculation. 0% means an efficacy which corresponds to that of the control plants while an efficacy of 100% means that no disease was observed.

chromatographic logP ([6]; method [a]) | chromatographic logP ([6]; preparation examples, method not indicated, read-out: Log P) | Compound | inhibition at 5 ppm [1] [%] | pest or weed control at 125 ppm [2] [%] | pest or weed control at 500 ppm [2] [%] | pest or weed control at 125 ppm [3] [%] | pest or weed control at 500 ppm [3] [%] | inhibition at 20 ppm [4] [%] | inhibition at 5 ppm [5] [%] | inhibition at 20 ppm [5] [%] | inhibition at 5 ppm [7] [%] | inhibition at 20 ppm [7] [%] | fold induction at 300 ppm [8] | pest or weed control at 125 ppm [9] [%] | pest or weed control at 31 ppm [2] [%] | pest or weed control at 31 ppm [3] [%] | fold induction at 75 ppm [8] | pest or weed control at 31 ppm [9] [%] | pest or weed control at 500 ppm ([9]; 500 ppm of active ingredient) [%] | inhibition at 20 ppm [1] [%]
1.74 | – | COC(=O)[C@H](CCCNC(=N)N)NC(=O)c1sc(Br)c(Br)c1C [I.035] | ≤ 30 | 70 to 79 | 80 to 89 | 80 to 89 | 80 to 89 | ≤ 30 | ≤ 30 | ≤ 30 | ≤ 30 | ≤ 30 | > 2 | 80 to 89 | – | – | – | – | – | –
– | 3.67 | CCSC(=O)C1(NC(=O)c2sc(Cl)c(Cl)c2C)CC1 [I.049, S-ethyl 1-{[(4,5-dichloro-3-methyl-2-thienyl)carbonyl]amino}cyclopropanecarbothioate] | ≤ 30 | 90 to 100 | 90 to 100 | 90 to 100 | 80 to 89 | ≤ 30 | ≤ 30 | – | ≤ 30 | ≤ 30 | > 2 | – | 90 to 100 | 70 to 79 | > 2 | 80 to 89 | 80 to 89 | –
3.12 | – | Cc1c(C(=O)NC(Cc2c[nH]c3ccccc23)C(=O)O)sc(Cl)c1Cl (stereo not drawn) [I.070] | ≤ 30 | 90 to 100 | 90 to 100 | – | 90 to 100 | ≤ 30 | ≤ 30 | ≤ 30 | ≤ 30 | ≤ 30 | > 2 | 80 to 89 | 70 to 79 | – | – | 70 to 79 | – | ≤ 30
1.73 | – | Cc1c(C(=O)NC(CC(N)=O)C(=O)O)sc(Br)c1Br (stereo not drawn) [I.076] | ≤ 30 | 90 to 100 | 90 to 100 | 80 to 89 | 90 to 100 | ≤ 30 | ≤ 30 | ≤ 30 | ≤ 30 | ≤ 30 | > 2 | – | – | – | – | 70 to 79 | – | ≤ 30
4.07 | – | CCOC(=O)C(NC(=O)c1sc(Cl)c(Cl)c1C)C(F)(F)F (stereo not drawn) [I.164] | ≤ 30 | 90 to 100 | ≥ 90 | 90 to 100 | – | ≤ 30 | ≤ 30 | ≤ 30 | ≤ 30 | ≤ 30 | > 2 | – | 90 to 100 | 90 to 100 | > 2 | 80 to 89 | – | ≤ 30
3.5 | – | COC(=O)C1(NC(=O)c2sc(Cl)c(Cl)c2C)CCC1 [I.171] | ≤ 30 | 90 to 100 | – | 90 to 100 | – | ≤ 30 | ≤ 30 | – | ≤ 30 | ≤ 30 | > 2 | 70 to 79 | 90 to 100 | 80 to 89 | > 2 | – | – | ≤ 30
2.43 | – | Cc1c(C(=O)NC(C)(C)C(=O)O)sc(Cl)c1Cl [I.174] | ≤ 30 | 90 to 100 | – | 90 to 100 | – | ≤ 30 | ≤ 30 | ≤ 30 | ≤ 30 | ≤ 30 | > 2 | 70 to 79 | – | 90 to 100 | > 2 | – | – | ≤ 30
